Legend:
[1] = test system: gastric peristalsis; experiment: Testing of the Gastric Peristalsis (gastric pressure waves, narcotized rats); assay type: in vivo, rat; settings: before vs after administration; for inhibition in vivo at 20 mg/kg: Rattus norvegicus, ip, read-out: Frequency Decrease in %; for Factor of the Increase in Amplitude: i.p., 20 mg/kg
Source text: To determine the functioning of the gastric peristalsis, rats weighing about 200 g are narcotized by means of ketamine hydrochloride and xylazine. A catheter is introduced into the Vena jugularis of the narcotized rats and a tracheal catheter into the trachea. A stomach probe is inserted into their stomach and tied thereto. The probe is connected via a three-way cock with a Statham pressure imparting device (P 23 DB). The stomach is sealed off by a ligature at the pylorus and at the cardia. The stomach is filled with 3 ml of an 0.9% aqueous sodium chloride solution. The pressure waves produced by the stomach are continuously registered by a suitable recording device such as by a Watanabe Multicorder (MC 641). In order to determine the effect of the compounds to be tested, they are dissolved in physiological sodium chloride solution or are suspended in Tylose MH 50 solution. Said solutions or suspensions are administered intraperitoneally to the rats in a dose of 20 mg/kg. The amplitudes and frequencies of the pressure wave-like movements of the stomach as they occur before and after administration of the compound to be tested, are compared.
This effect in combination with a pronounced decrease in the frequencies of varying magnitude results in an improved food passage through the stomach.

[2] = Determination of the Acute Toxicity (acute seven-day toxicity); settings: mouse, in vivo, ip, fasting white NMRI mouse, single i.p. dose
Procedure: The acute seven-day toxicity is determined by intraperitoneal administration of a single dose of the respective compound to a fasting white NMRI mouse. The LD50 -values are calculated via electronic data processing by a probit analysis as described in the book "Grundbegriffe der Biometrie" (Basic Biometrical Definitions) by L. Cavalli-Sforza, page 153 et seq., published by Gustav Fischer Verlag, Stuttgart, 1964.

CNC1COc2ccccc2C(=O)C1 (racemic) [Compound 1, rac.-3-methylamino-3,4-dihydro-1-benzoxepin-5(2H)-one]
inhibition in vivo at 20 mg/kg [1]: 8% | Factor of the Increase in Amplitude [1]: 1.6 | LD50 at 168 h [2]: 137 mg/kg

CC(C)NC1COc2ccccc2C(=O)C1 (racemic) [Compound 2, rac.-3-isopropylamino-3,4-dihydro-1-benzoxepin-5(2H)-one]
inhibition in vivo at 20 mg/kg [1]: 16% | Factor of the Increase in Amplitude [1]: 2.6 | LD50 at 168 h [2]: 183 mg/kg

O=C1CC(NCc2ccccc2)COc2ccccc21 (racemic) [Compound 3, rac.-3-benzylamino-3,4-dihydro-1-benzoxepin-5(2H)-one]
inhibition in vivo at 20 mg/kg [1]: 7% | Factor of the Increase in Amplitude [1]: 3.6 | LD50 at 168 h [2]: 253 mg/kg

CN(C)CCCNC1COc2ccccc2C(=O)C1 (racemic) [Compound 4, rac.-3-(γ-dimethylamino-propylamino)-3,4-dihydro-1-benzoxepin-5(2H)-one]
inhibition in vivo at 20 mg/kg [1]: 25% | Factor of the Increase in Amplitude [1]: 3.7 | LD50 at 168 h [2]: 272 mg/kg

CN(C)C1COc2ccccc2C(=O)C1 (racemic) [Compound 5, rac.-3-dimethylamino-3,4-dihydro-1-benzoxepin-5(2H)-one]
inhibition in vivo at 20 mg/kg [1]: 12% | Factor of the Increase in Amplitude [1]: 1.3 | LD50 at 168 h [2]: 285 mg/kg

CN(C)CCCNC1COc2ccc(Cl)cc2C(=O)C1 (racemic) [Compound 6, rac.-3-(γ-dimethylamino-propylamino)-7-chloro-3,4-dihydro-1-benzoxepin-5(2H)-one]
inhibition in vivo at 20 mg/kg [1]: 29% | Factor of the Increase in Amplitude [1]: 3.4 | LD50 at 168 h [2]: 296 mg/kg

CCCCNC1COc2ccccc2C(=O)C1 (racemic) [Compound 7, rac.-3-(n-butylamino)-3,4-dihydro-1-benzoxepin-5(2H)-one]
inhibition in vivo at 20 mg/kg [1]: 28% | Factor of the Increase in Amplitude [1]: 6.6

CN[C@@H]1COc2ccccc2[C@H](O)C1 (relative stereo) [A]
LD50 at 168 h [2]: 342 mg/kg

CC(C)N[C@@H]1COc2ccccc2[C@H](O)C1 (relative stereo) [C]
inhibition in vivo at 20 mg/kg [1]: 13%

O[C@@H]1C[C@H](NCc2ccccc2)COc2ccccc21 (relative stereo) [D]
inhibition in vivo at 20 mg/kg [1]: 21% | LD50 at 168 h [2]: 92 mg/kg

CN(C)CCCN[C@@H]1COc2ccccc2[C@H](O)C1 (relative stereo) [E]
inhibition in vivo at 20 mg/kg [1]: 32% | LD50 at 168 h [2]: 664 mg/kg

CCN(CC)[C@@H]1COc2ccccc2[C@H](O)C1 (relative stereo) [F]
LD50 at 168 h [2]: 183 mg/kg

O[C@@H]1C[C@H](N2CCCC2)COc2ccccc21 (relative stereo) [K]
inhibition in vivo at 20 mg/kg [1]: 10%

CN(C)[C@@H]1COc2ccccc2[C@H](O)C1 (relative stereo) [O]
inhibition in vivo at 20 mg/kg [1]: 7%

— patent publication US4279904A, “3-Amino-1-benzoxepine derivatives and their salts and pharmaceutical compositions thereof” (Kali-Chemie Pharma GmbH, priority 1979, dated 1981)
